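How tested: cells in 96-well plates exposed to compound for 48 hours at five concentrations. The concentration for 50% growth inhibition is given as GI50. TGI is the concentration that stops growth completely.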
Columns and labels:
Assay in all cases: NCI anticancer screen, dose series, 48 h
[1] = tested on: HL-60(TB) leukemia
[2] = tested on: NCI/ADR-RES ovarian
[3] = tested on: SNB-75 CNS
[4] = tested on: KM12 colon
[5] = tested on: EKVX NSCLC
[6] = tested on: SK-OV-3 ovarian
[7] = tested on: MDA-MB-231 breast
[8] = tested on: SR leukemia
[9] = tested on: CCRF-CEM leukemia
[10] = tested on: OVCAR-5 ovarian
[11] = tested on: SN12C renal
[12] = tested on: SNB-19 CNS
[13] = tested on: K-562 leukemia
[14] = tested on: IGROV1 ovarian
[15] = tested on: MOLT-4 leukemia
[16] = tested on: HOP-92 NSCLC
[17] = tested on: PC-3 prostate
[18] = tested on: OVCAR-8 ovarian

Question: Which results are given for `CC(C)c1ccc(C(=O)Nc2sc3c(CN(C)C)c(O)ccc3c2C(N)=O)cc1`?
Answer: GI50 [1]: 1.74 µM; TGI [1]: 4.38 µM; GI50 [2]: 2.64 µM; TGI [2]: > 100 µM; GI50 [3]: 2.09 µM; TGI [3]: > 100 µM; GI50 [4]: 0.728 µM; TGI [4]: > 100 µM; GI50 [5]: 6.28 µM; TGI [5]: > 100 µM; GI50 [6]: 6.72 µM; TGI [6]: > 100 µM; GI50 [7]: 3.27 µM; TGI [7]: > 100 µM; GI50 [8]: 2.89 µM; TGI [8]: 8.79 µM; GI50 [9]: 2.2 µM; TGI [9]: 9.37 µM; GI50 [10]: 2.66 µM; TGI [10]: > 100 µM; GI50 [11]: 2.2 µM; TGI [11]: > 100 µM; GI50 [12]: 3.23 µM; TGI [12]: > 100 µM; GI50 [13]: 0.409 µM; TGI [13]: 4.55 µM; GI50 [14]: 2.02 µM; TGI [14]: > 100 µM; GI50 [15]: 2.32 µM; TGI [15]: 8.51 µM; GI50 [16]: 3.48 µM; TGI [16]: > 100 µM; GI50 [17]: 2.55 µM; TGI [17]: > 100 µM; GI50 [18]: 3.07 µM; TGI [18]: > 100 µM

Source: PubChem BioAssay (NCI)
